Assay results: ChEMBL document CHEMBL1152282, “SAR profiles of spirocyclic nicotinamide derived selective HDAC1/HDAC2 inhibitors (SHI-1:2)” (Bioorg Med Chem Lett, 2008)
Converted amounts (≈) assume the structure as drawn.

Key:
[1] = Volume of distribution at steady state in rat at 2.0 mg/kg, iv; type: ADME, organism-based; parameters: dose 2 mg/kg, route intravenous; details: in vivo, read-out: Vdss
[2] = Half life in rat at 2.0 mg/kg, iv; type: ADME, organism-based; parameters: dose 2 mg/kg, route intravenous; details: in vivo
[3] = Cmax in mouse at 150 mg/kg, po; type: ADME, organism-based; parameters: dose 150 mg/kg, route oral; details: in vivo
[4] = Oral bioavailability in dog at 1.0 mg/kg; type: ADME, organism-based, Canis lupus familiaris; details: in vivo
[5] = Plasma clearance in rat at 2.0 mg/kg, iv; type: ADME, organism-based; parameters: dose 2 mg/kg, route intravenous
[6] = AUC in mouse at 150 mg/kg, po; type: ADME, organism-based; parameters: dose 150 mg/kg, route oral; details: plasma
[7] = Half life in dog at 0.50 mg/kg, iv; type: ADME, organism-based, Canis lupus familiaris; parameters: dose 0.5 mg/kg, route intravenous; details: in vivo, 0.5 mg/kg
[8] = Volume of distribution at steady state in dog at 0.50 mg/kg, iv; type: ADME, organism-based, Canis lupus familiaris; parameters: dose 0.5 mg/kg, route intravenous; details: in vivo, 0.5 mg/kg, read-out: Vdss
[9] = Plasma clearance in dog at 0.50 mg/kg, iv; type: ADME, organism-based, Canis lupus familiaris; parameters: dose 0.5 mg/kg, route intravenous; details: 0.5 mg/kg
[10] = Oral bioavailability in rat at 4.0 mg/kg; type: ADME, organism-based; details: in vivo
[11] = Half life in dog at 0.90 mg/kg, iv; type: ADME, organism-based, Canis lupus familiaris; parameters: dose 0.9 mg/kg, route intravenous; details: in vivo, 0.9 mg/kg
[12] = Plasma clearance in dog at 0.90 mg/kg, iv; type: ADME, organism-based, Canis lupus familiaris; parameters: dose 0.9 mg/kg, route intravenous; details: 0.9 mg/kg
[13] = Solubility of the compound; type: physicochemical
Canis familiaris [14] = assay: Plasma concentration in CV dog at 3 mg/kg, iv; type: ADME, organism-based, Canis lupus familiaris; parameters: dose 3 mg/kg, route intravenous; details: in vivo
[15] = Plasma concentration in human HCT116 cells xenografted CD1 mouse at 150 mg/kg, po after 24 hrs; type: ADME, organism-based, HCT-116; parameters: dose 150 mg/kg, route oral
[16] = Plasma concentration in human HCT116 cells xenografted CD1 mouse at 300 mg/kg, po after 24 hrs; type: ADME, organism-based, HCT-116; parameters: dose 300 mg/kg, route oral
[17] = Plasma concentration in human HCT116 cells xenografted CD1 mouse at 300 mg/kg, po after 6 hrs; type: ADME, organism-based, HCT-116; parameters: dose 300 mg/kg, route oral
[18] = Plasma concentration in human HCT116 cells xenografted CD1 mouse at 15 mg/kg, ip after 6 hrs; type: ADME, organism-based, HCT-116; parameters: dose 15 mg/kg, route intraperitoneal
[19] = Plasma concentration in human HCT116 cells xenografted CD1 mouse at 150 mg/kg, po after 6 hrs; type: ADME, organism-based, HCT-116; parameters: dose 150 mg/kg, route oral
[20] = Plasma concentration in human HCT116 cells xenografted CD1 mouse at 15 mg/kg, ip after 24 hrs; type: ADME, organism-based, HCT-116; parameters: dose 15 mg/kg, route intraperitoneal
[21] = Plasma concentration in human HCT116 cells xenografted CD1 mouse at 15 mg/kg, ip after 48 hrs; type: ADME, organism-based, HCT-116; parameters: dose 15 mg/kg, route intraperitoneal
[22] = Distribution coefficient, log D of the compound; type: physicochemical; details: octanol/water
Canis familiaris [23] = assay: Plasma concentration in CV dog at 10 mg/kg, iv; type: ADME, organism-based, Canis lupus familiaris; parameters: dose 10 mg/kg, route intravenous; details: in vivo
[24] = Plasma concentration in human HCT116 cells xenografted CD1 mouse at 15 mg/kg, ip after 72 hrs; type: ADME, organism-based, HCT-116; parameters: dose 15 mg/kg, route intraperitoneal

Vd [1] [L/kg] | half-life [2] [min] | Cmax [3] [µM] | bioavailability [4] [%] | clearance [5] [mL/min/kg] | AUC [6] [µM·h] | half-life [7] [min] | Vd [8] [L/kg] | clearance [9] [mL/min/kg] | bioavailability [10] [%] | Compound | also measured
0.47 | 156 | 6 | 18 | 7.4 | 14 | 408 | 2.3 | 9.8 | 13 | Nc1ccc(-c2cccs2)cc1NC(=O)c1ccc(N2CCC3(CC2)COC(=O)N3)nc1 | –
– | 55.8 | – | – | – | – | – | – | – | 37 | C[C@H]1CN(c2ccc(C(=O)Nc3ccccc3N)cn2)CCN1C(=O)OCc1ccccc1 | half-life [11]: 336 min; clearance [12]: 7.4 mL/min/kg
8.6 | 372 | – | 100 | 31 | – | 402 | 3.3 | 5.9 | 23 | Nc1ccc(-c2cccs2)cc1NC(=O)c1ccc(N2CCC3(CCNC3)CC2)nc1 | solubility [13]: 186 µM (≈ 80.6 µg/mL); concentration (Canis familiaris [14]): 6 µM; concentration at 24 h [15]: 220 nM; concentration at 24 h [16]: 780 nM; concentration at 6 h [17]: 21 µM; concentration at 6 h [18]: 3.4 µM; concentration at 6 h [19]: 11 µM; concentration at 24 h [20]: 320 nM; concentration at 48 h [21]: 50 nM; logD [22]: 1.45; concentration (Canis familiaris [23]): 30 µM; concentration at 72 h [24]: 30 nM
– | – | 2 | – | – | 10 | – | – | – | – | Nc1ccc(-c2cccs2)cc1NC(=O)c1ccc(N2CCC3(CC2)CNC(=O)N3)nc1 | –
– | – | 34 | – | – | 88 | – | – | – | – | Nc1ccc(-c2cccs2)cc1NC(=O)c1ccc(N2CCC3(CCNC3=O)CC2)nc1 | –
